# Results taken from US10111431B2, “Application of biofilm formation inhibiting compounds enhances control of citrus canker” (priority 2013, dated 2018).
# Like-named read-outs stand apart in the source and are kept apart here.
# Experiments:
# Format in all cases: cell-based, Xanthomonas citri subsp. citri
# [1] = system: Xac strain 306 biofilm formation; assay: Biofilm formation on citrus abaxial leaf surfaces; details: 10 mM D-leucine, 100 μg/mL IAN; 28° C., 24 h, crystal violet
# Protocol: To gain further evidence of the effect of selected compounds on biofilm formation, biofilm formation in glass tubes and on leaf surfaces was examined as described previously (Li and Wang, 2012). Briefly, the standardized overnight culture of Xac 306 (OD600=1.0) were diluted 1:10 in fresh NB containing 1.0% glucose and the selected compound. For biofilm formation assay in glass tubes (Fischer Scientific, Pittsburgh, Pa.), 1 ml of the diluted bacterial suspension was transferred into each sterilized borosilicate glass tube and incubated at 28° C. without shaking for 48 h. The planktonic growth was then discarded and the tubes were gently washed three times with SDW. The biofilm formed on the tubes was visualized by staining with 0.1% CV. The stain remaining in cells on glass tubes was dissolved in 95% ethanol and quantified by measuring the optical density at 590 nm. For biofilm formation assay on leaf surfaces, 20 μl of the diluted bacterial suspension was dropped onto the abaxial surface of citrus leaves. The leaves were kept in a humidified chamber at 28° C. for 24 h without shaking. The biofilm formed on the leaf surfaces was visualized by staining with 0.1% CV. The biofilm assays were repeated three times with four replicates each time.
# [2] = system: X. citri subsp. citri strain 306; assay: Determination of minimum inhibitory concentrations (MICs) in NB medium, 96-well plate; details: Xanthomonas citri, 48 h
# Protocol: Xac strain 306 was grown in NB at 28° C. with shaking at 200 rpm for 7 h. The cultures were standardized to an OD600 of 0.03 (5×10^7 colony forming unit (CFU)/mL) in NB and then aliquoted into wells of a 96-well plate, 190 μL per well. The initial test concentrations of the compounds were diluted (1:20) in the culture (10 μl of compound in 190 μl of culture) and incubated at 28° C. under stationary conditions. The cultures were monitored at 24 and 48 h at OD600, and the lowest concentration resulting in no growth after 48 h compared to the control samples was defined as the MIC for Xac strain 306. All determinations were conducted in eight replicate wells and repeated three times.
# Xac 306 biofilm cells = assay: Resistance of Xac biofilm cells to copper, cell viability assay in glass tubes; details: for susceptibility of biofilms to CuSO4 relative to untreated control: 10 mM D-leucine, 100 μg/mL IAN; for cell viability of Xac biofilms exposed to CuSO4: CuSO4 1.0 mM plus biofilm inhibitor; for viable cells in biofilms: CuSO4 (1.0 mM) plus D-leucine 10.0 mM and/or IAN 100 μg/ml, 24 h
# Protocol: The level of copper resistance of biofilms was evaluated using a cell viability assays. Briefly, Xac biofilms were prepared using NB with stationary incubation in glass tubes as described above. After 48 h-incubation, the cultures were removed and bacterial cells attached to the tubes were gently washed three times with SDW. One milliliter of fresh NB with CuSO4 (1.0 mM), D-leucine (10 mM) or IAN (100 μg/mL), or a combination of these compounds was added to each tube. NB alone was used as control. Tubes were kept at room temperature for 24 h and shaken vigorously for 5 min. The suspensions were diluted in 10-fold series, and 10 μL of each dilution spotted in triplicate on NA plate. Plates were incubated at 28° C. for 48 to 72 h prior to assessing bacterial growth. Colonies that grew near the dilution end-point were counted and bacterial populations in the initial suspensions prior to dilution were calculated. Each treatment compromises four replicates and the experiment repeated three times.
# Xac306 biofilm formation = assay: Biofilm formation on polystyrene surface and in glass tubes at sub-MIC; details: Xanthomonas citri, read-out: level of biofilm formation, % of control
# Protocol: A static biofilm formation assay in 96-well polystyrene plates coupled with CV staining was performed as previously reported with modifications (Li and Wang, 2011). Briefly, a 96-well polystyrene plate (Nunclon surface, Nuncbrand, Denmark) was prepared with 170 μL NB plus 1.0% glucose per well. Aliquots of 20 μL each of the different concentrations of the tested compound were pipetted into eight wells containing 170 μL of NB plus 1.0% glucose. To each of these wells was added 10 μL of the standardized overnight Xac 306 culture (OD600=1.0). Control wells contained NB plus 1.0% glucose and SDW or 0.1% DMSO as a sterility control, or standardized overnight Xac 306 culture as a growth control. […] After incubation, the planktonic growth was measured at OD600. To quantify the amount of biofilms formed on the surfaces of the wells, the culture was removed from the wells. […] The eluted CV was 2-fold diluted in double distilled water and the absorbance at 590 nm was measured. […]
# To gain further evidence of the effect of selected compounds on biofilm formation, biofilm formation in glass tubes and on leaf surfaces was examined as described previously (Li and Wang, 2012). […] The stain remaining in cells on glass tubes was dissolved in 95% ethanol and quantified by measuring the optical density at 590 nm. […]
SMILES,biofilm formation on citrus leaf surfaces [1],MIC [2],susceptibility of biofilms to CuSO4 relative to untreated control (Xac 306 biofilm cells),cell viability of Xac biofilms exposed to CuSO4 (Xac 306 biofilm cells),viable cells in biofilms (Xac 306 biofilm cells),activity at 10000 µM (Xac306 biofilm formation),"MIC ([2]; compound alone, NB medium, 28° C., stationary, OD600, read-out: MIC)","activity at 100 µg/mL (Xac306 biofilm formation; polystyrene surface and glass tubes, 10 mM D-leucine, 100 μg/mL IAN)"
CC(C)C[C@@H](N)C(=O)O [D-leucine],declined biofilm formation,16 mM,about 10 times,significantly reduced,1.1×10^6 CFU/mL,50%,–,–
"N#CCc1c[nH]c2ccccc12 [IAN, 3-indolylacetonitrile]",declined biofilm formation,–,about 10 times,significantly reduced,4.3×10^6 CFU/mL,–,200 µg/mL,60%
